Measured values as given in ChEMBL document CHEMBL5046270, “A Selective and Orally Bioavailable Quinoline-6-Carbonitrile-Based Inhibitor of CDK8/19 Mediator Kinase with Tumor-Enriched Pharmacokinetics” (J Med Chem, 2022).
Active and inactive are the calls of the source. The calls are words filed in the database; no cut-off is given here.

Tests used:
[1] = target: Cyclin-C/Cyclin-dependent kinase 19 (Homo sapiens) (UniProt Q9BWU1+P24863); test: Binding affinity to recombinant human CDK19/cyclinC assessed as mean residence time by TR FRET based assay; assay type: protein-complex assay
HEK293 [2] = test: Effect of compound on HEK293 cells assessed as mRNA expression in CDK8/19 dependent MYC gene in presence of pretreatment with TNFalpha for 2 hr by qPCR analysis; assay type: functional, cell-based; details: Homo sapiens
[3] = Plasma C0 in BALB/c mouse xenografted with mouse CT26 cells at 2.5 mg/kg, iv by LC-MS/MS analysis; assay type: ADME, organism-based
[4] = Tmax in tumor of BALB/c mouse xenografted with mouse CT26 cells at 100 mg/kg, po by LC-MS/MS analysis; assay type: ADME, organism-based, Neoplasm
[5] = Half life in plasma of BALB/c mouse xenografted with mouse CT26 cells at 100 mg/kg, po by LC-MS/MS analysis; assay type: ADME, organism-based
HEK293 [6] = test: Inhibition of TNFalpha induced CDK8/19 dependent NF kappa B activity CDK8/19 in double knockout HEK293 cell for 3 hrs by qt-PCR analysis; assay type: functional, cell-based; details: Homo sapiens
[7] = Downregulation of CDK8/19 in HEK293 cells assessed as mRNA expression level in KCTD12 gene at 1 uM for 3 hrs pretreatment and measured after 24 hr post wash-off by qt-PCR analysis; assay type: functional; details: Homo sapiens, time 27 hrs
[8] = AUC (0-24hrs) in plasma of BALB/c mouse xenografted with mouse CT26 cells at 2.5 mg/kg, iv by LC-MS/MS analysis; assay type: ADME, organism-based; design: time < 24 hr, route intravenous, dose 2.5 mg/kg; details: in vivo
HEK293 [9] = test: Inhibition of TNFalpha induced CDK8/19 dependent NF kappa B activity in Wild type HEK293 cell for 3 hrs by qt-PCR analysis; assay type: functional, cell-based; details: Homo sapiens
[10] = AUC (0-24hrs) in tumor of BALB/c mouse xenografted with mouse CT26 cells at 100 mg/kg, po by LC-MS/MS analysis; assay type: ADME, organism-based, Neoplasm; design: time < 24 hr, route oral, dose 100 mg/kg
[11] = Tmax in plasma of BALB/c mouse xenografted with mouse CT26 cells at 100 mg/kg, po by LC-MS/MS analysis; assay type: ADME, organism-based

With `CN1CCN(C(=O)c2ccc3cc(CCNc4ccnc5ccc(C#N)cc45)ccc3c2)CC1` the MRT [1] was 4.25 min, the Activity (HEK293 [2]) was “Active” and the C0 [3] was 503 ng/mL. For the same compound, the Tmax [4] was 12 h, the half-life [5] was 3.53 h and the Activity (HEK293 [6]) was “inactive”. The inhibition at 1 µM [7] was 30%, the AUC [8] was 331 ng·h/mL and the Activity (HEK293 [9]) was “Active”. The AUC(0-t) at 24 h [10] was 88600 ng·h/mL and the Tmax [11] was 12 h.
